Values joined by “and” are separate entries in the source; they are usually repeats but may differ in a detail not shown here. Equal entries are not always repeated.
Tests used:
[1] = tested on: sunflower genotypes carrying the A205V mutation event; assay: Greenhouse imazapir dose response, A205V genotypes together; format: in vivo, Helianthus annuus; settings: 14 DAT; for biomass accumulation, Dif with control / plant height, Dif with Control / root dry weight, Dif with control: A205V mean; for biomass accumulation, % of untreated, Mean / root dry weight, % of untreated, Mean / plant height, % of untreated, Mean: six A205V genotypes; for Phytotoxicity Index, Mean: three A205V genotypes
Experimental: (§1) A greenhouse study was conducted to quantify and contrast the imazapir sensivity of the mutants A122T and A205V in different genetic backgrounds at the whole plant level in sunflower. Seeds of the different sunflower lines that were used in this study were obtained under field conditions.
(§2) Seeds were sown in Petri dishes and, after germination, plantlets were transplanted to pots of 10 cm of diameter in a potting media consisting of equal parts of vermiculite, soil and sand. Plants were grown in a greenhouse under natural light conditions supplemented with 400 W sodium halide lamps to provide a 16 hrs daylength. Day/night temperatures were 25 and 20° C., respectively. At the V2 stage 10 plants of each genotype were randomly assigned to each treatment consisting of […] imazapir doses (0, 40, 80, 160, 240, 320, 400 and 480 g ai/ha), and a zero-time biomass determination. Experiment was arranged as a randomized block design with a full factorial (sunflower line×treatment) arrangement of treatments and 10 replications.
(§3) On the day of herbicide application ten plants of each genotype were cut at the cotyledonal node and dried at 60° C. for 48 hrs zero-time for dried weight determination. […] Height was determined as the distance between the cotyledonal node and the apex of each plant. For root biomass determination, each plant was taken from the pot and the potting media was washed out from the roots. Above ground biomass data from each line were converted to biomass accumulation after application by subtracting the appropriate average zero-time biomass from each sample. Dry biomass data were converted to percentages of the untreated control plants within each line to allow direct comparisons between groups.

[2] = tested on: sunflower genotypes carrying the A122T mutation event; assay: Greenhouse imazapir dose response, A122T genotypes together; format: in vivo, Helianthus annuus; settings: A122T mean, 14 DAT
Experimental: as §1, §2, §3

In the case of `CC(C)C1(C)N=C(c2ncccc2C(=O)O)NC1=O` (centres unmarked) [Imazapyr, imazapyr], the “biomass accumulation, Dif with control” value ([1]; 0.5x (40 g ai/ha)) is reported as 5.5%, the “plant height, Dif with Control” value ([1]; 0.5x (40 g ai/ha)) is reported as 5.6% and the “root dry weight, Dif with control” value ([1]; 0.5x (40 g ai/ha)) is reported as 12.8%. For the same compound, the “biomass accumulation, Dif with control” value ([1]; 1x (80 g ai/ha)) was 17.8%, the “plant height, Dif with Control” value ([1]; 1x (80 g ai/ha)) was 10.8% and the “root dry weight, Dif with control” value ([1]; 1x (80 g ai/ha)) was 29.2%. The “biomass accumulation, Dif with control” value ([1]; 2x (160 g ai/ha)) was 38.4%, the “plant height, Dif with Control” value ([1]; 2x (160 g ai/ha)) was 30.8% and the “root dry weight, Dif with control” value ([1]; 2x (160 g ai/ha)) was 49.4%. The “biomass accumulation, Dif with control” value ([1]; 3x (240 g ai/ha)) was 52.4%, the “plant height, Dif with Control” value ([1]; 3x (240 g ai/ha)) was 49.6% and the “root dry weight, Dif with control” value ([1]; 3x (240 g ai/ha)) was 60.8%. For the same compound, the “biomass accumulation, Dif with control” value ([1]; 4x (320 g ai/ha)) was 64.6%, the “plant height, Dif with Control” value ([1]; 4x (320 g ai/ha)) was 66.3% and the “root dry weight, Dif with control” value ([1]; 4x (320 g ai/ha)) was 68.9%. For the same compound, the “biomass accumulation, Dif with control” value ([1]; 5x (400 g ai/ha)) was 67.6%, the “plant height, Dif with Control” value ([1]; 5x (400 g ai/ha)) was 68.0% and the “root dry weight, Dif with control” value ([1]; 5x (400 g ai/ha)) was 69.3%. The “biomass accumulation, Dif with control” value ([1]; 6x (480 g ai/ha)) was 70.0%, the “root dry weight, Dif with control” value ([1]; 6x (480 g ai/ha)) was 75.6% and the “plant height, Dif with Control” value ([1]; 6x (480 g ai/ha), listed as imazapir) was 68.9% and 69.8%. The “biomass accumulation, % of untreated, Mean” value (“biomass accumulation, %” for short) ([1]; 0.5x (40 g ai/ha)) was 94.5%, the “root dry weight, % of untreated, Mean” value ([1]; 0.5x (40 g ai/ha)) was 87.2% and the “biomass accumulation, %” value ([1]; 1x (80 g ai/ha)) was 82.2%. For the same compound, the “root dry weight, % of untreated, Mean” value ([1]; 1x (80 g ai/ha)) was 70.8%, the “biomass accumulation, %” value ([1]; 2x (160 g ai/ha)) was 61.6% and the “plant height, % of untreated, Mean” value ([1]; 2x (160 g ai/ha)) was 69.2%. For the same compound, the “root dry weight, % of untreated, Mean” value ([1]; 2x (160 g ai/ha)) was 50.6%, the “biomass accumulation, %” value ([1]; 3x (240 g ai/ha)) was 47.6% and the “plant height, % of untreated, Mean” value ([1]; 3x (240 g ai/ha)) was 50.4%. For the same compound, the “root dry weight, % of untreated, Mean” value ([1]; 3x (240 g ai/ha)) was 39.2%, the “biomass accumulation, %” value ([1]; 4x (320 g ai/ha)) was 35.4% and the “plant height, % of untreated, Mean” value ([1]; 4x (320 g ai/ha)) was 33.7%. The “root dry weight, % of untreated, Mean” value ([1]; 4x (320 g ai/ha)) was 31.1%, the “biomass accumulation, %” value ([1]; 5x (400 g ai/ha)) was 32.4% and the “plant height, % of untreated, Mean” value ([1]; 5x (400 g ai/ha)) was 32.0%. The “root dry weight, % of untreated, Mean” value ([1]; 5x (400 g ai/ha)) was 30.7%, the “biomass accumulation, %” value ([1]; 6x (480 g ai/ha)) was 30.0% and the “plant height, % of untreated, Mean” value ([1]; 6x (480 g ai/ha)) was 30.2%. For the same compound, the “root dry weight, % of untreated, Mean” value ([1]; 6x (480 g ai/ha)) was 24.4%, the “Phytotoxicity Index, Mean” value ([1]; 0.5x (40 g ai/ha)) was 0 and the “Phytotoxicity Index, Mean” value ([1]; 1x (80 g ai/ha)) was 0. The “Phytotoxicity Index, Mean” value ([1]; 2x (160 g ai/ha)) was 2.2, the “Phytotoxicity Index, Mean” value ([1]; 3x (240 g ai/ha)) was 5.1 and the “Phytotoxicity Index, Mean” value ([1]; 4x (320 g ai/ha)) was 7.4. For the same compound, the “Phytotoxicity Index, Mean” value ([1]; 5x (400 g ai/ha)) was 8.2, the “Phytotoxicity Index, Mean” value ([1]; 6x (480 g ai/ha)) was 8.2 and the “biomass accumulation, Dif with control” value ([2]; 0.5x (40 g ai/ha)) was 1.1%. For the same compound, the “plant height, Dif with Control” value ([2]; 0.5x (40 g ai/ha)) was 0.6%, the “root dry weight, Dif with control” value ([2]; 0.5x (40 g ai/ha)) was 0.1% and the “biomass accumulation, Dif with control” value ([2]; 1x (80 g ai/ha)) was 3.2%. For the same compound, the “plant height, Dif with Control” value ([2]; 1x (80 g ai/ha)) was 1.4%, the “root dry weight, Dif with control” value ([2]; 1x (80 g ai/ha)) was 2.5% and the “biomass accumulation, Dif with control” value ([2]; 2x (160 g ai/ha)) was 5.1%. For the same compound, the “plant height, Dif with Control” value ([2]; 2x (160 g ai/ha)) was 2.7%, the “root dry weight, Dif with control” value ([2]; 2x (160 g ai/ha)) was 5.9% and the “biomass accumulation, Dif with control” value ([2]; 3x (240 g ai/ha)) was 7.2%. The “plant height, Dif with Control” value ([2]; 3x (240 g ai/ha)) was 4.4%, the “root dry weight, Dif with control” value ([2]; 3x (240 g ai/ha)) was 10.6% and the “biomass accumulation, Dif with control” value ([2]; 4x (320 g ai/ha)) was 12.2%. The “plant height, Dif with Control” value ([2]; 4x (320 g ai/ha)) was 6.3% and the “root dry weight, Dif with control” value ([2]; 4x (320 g ai/ha)) was 18.6%.
